Test results taken from the NIST ThermoML archive (doi:10.1021/je700591h).
± gives the expanded uncertainty stated by the source.

Conditions: Crystal

Which Normal melting temperature does the source give for C[S+](C)[O-] [dimethyl sulfoxide] here?
The Normal melting temperature was 18.51 ± 6 °C.
